This note sets out measurements from patent US20070203163A1, “Novel Treatment Of Irritable Bowel Syndrome 1” (priority 2003, published 2007).

The structures appear in SMILES notation.

The subject of the assay is visceromotor response to colorectal distension. Briefly: Visceromotor response to isobaric colorectal distension in rats. Format: in vivo, rats (Sprague Dawley). The text has this: In this study the effect of acute administration of a compound on the visceromotor response to isobaric colorectal distension in rats is investigated (Ritchie J. Pain from distension of the pelvic colon by inflating a balloon in the irritable bowel syndrome. Gut 1973; 6: 105-112. Ness T J, Gebhart G F. Colorectal distension as a noxious visceral stimulus: physiological and pharmacological characterization of pseudoeffective reflexes in the rat. Brain Research 1988; 450: 153-169).
Colorectal distension (CRD) is performed in all rats (Sprague Dawley) using a paradigm of 12 consecutive distensions (or pulses) at 80 mmHg for 30 seconds each with 4.5 minute intervals (12×80 mmHg). The visceromotor respbnse is determined by quantifying phasic changes in the balloon pressure, which is processed by specially designed computer software. The compound is dissolved in saline and administered at the doses of 1, 3 and 10 μmol/kg. The compound is given intravenously in a volume of 1 mL/kg between the third and fourth distension.

Consider `COCc1cc(C#N)cc(-c2nc(-c3ccc(F)cn3)no2)c1` [3-[3-(5-Fluoro-pyridin-2-yl)-[1,2,4]oxadiazol-5-yl]-5-methoxymethyl-benzonitrile], for which the “effect on visceromotor response (VMR) to colorectal distension” value (1 μmol/kg i.v.) is recorded as “transient inhibitory effect”.
For `Cc1cccc(C#Cc2ccccc2)n1` [MPEP, 2-methyl-6-(phenylethynyl)-pyridine], the “effect on visceromotor response (VMR) to colorectal distension” value is “No effect” (1 μmol/kg i.v.), “modest effect during a few distensions only” (3 μmol/kg i.v.) and “decreased the visceromotor response (VMR)” (10 μmol/kg i.v.). In addition, the “average visceromotor response (VMR) during colorectal distension, relative to vehicle treated (100±19)” value (10 μmol/kg i.v., CRD 12×80 mmHg, mean±SEM, n=8) is on record as 46±11%.
